Assays:
[1] = test system: histone deacetylase; test: Histone deacetylase activity in HT-29 cells (fluorometric kit); type: cell-based; conditions: 10% cell free supernatant, 48 hours
Method: Cell free supernatants of stationary phase bacterial cultures were isolated by centrifugation and filtering in a 0.22 uM filter. HT-29 cells were used 3 days' post confluence and stepped down in 1 mL DTS 24 hours prior to commencement of the experiment. The HT-29 cells were challenged with 10% cell free supernatant diluted in DTS and this was left to incubate for 48 hours. […] extraction kit and samples were snap frozen prior to HDAC activity measurement. HDAC activity kit was assessed fluorometrically using the Sigma Aldrich (UK) kit.

[2] = test system: differentiated neuroblasoma cells; test: BDNF secretion in SHSY-5Y cells; type: cell-based, human; conditions: in combination with retinoic acid (10 μM, differentiation); 50 μl bacteria SN
Method: SH-SY5-SY were plated in 24 wells plate at density of 60,000 cells/well and placed in the incubator. After 24 h, media were replaced with differentiation medium (growth medium containing 1% FBS) and 10 μM retinoic acid. Differentiation medium was replaced every other day and cells were used on day 10 of differentiation. For the treatment differentiation medium was removed and replaced with 450 ul of full growth media and 50 μl of bacteria SN was added to the treated wells or YCFA+ was added as negative Control.

[3] = test system: BALBc mice; test: Ex vivo gene expression in colon and ileum of mice fed with bacteria; parameters: species or system mouse
Method: Animals were allowed to habituate to their holding room for one week after arrival into the animal unit. They receive oral gavage (200 μL dose) of live biotherapeutics at a dose of 1×10^9 CFU for 6 consecutive days between 15:00 and 17:00. On day 7, the animals are decapitated, and tissues are harvested for experimentation. The in vitro results were compared with data from the ex vivo parallel analysis on the gut of mice fed with […] expression of TJP2 and occludin was quantified in the colon and ileum. […] Total RNA was extracted using the mirVanaTM miRNA Isolation kit (Ambion/Llife technologies, Paisley, UK) and DNase treated (Turbo DNA-free, Ambion/life technologies) according to the manufacturers recommendations. RNA was quantified using NanoDropTM spectrophotometer (Thermo Fisher Scientific Inc., Wilmington, Del., USA) according to the manufacturer's instructions. RNA quality was assessed using the Agilent Bioanalyzer (Agilent, Stockport, UK) according to the manufacturer's procedure and an RNA integrity number (RIN) was calculated. […] RNA was reverse transcribed to cDNA using the Applied Biosystems High Capacity cDNA kit (Applied Biosystems, Warrington, UK) according to manufacturer's instructions. Briefly, Multiscribe Reverse Transcriptase (50 U/μL) (1)(2)(1)(10) was added as part of RT master mix, incubated for 25° C. for 10 min, 37° C. for 2 h, 85° C. for 5 min and stored at 4° C. Quantitative PCR was carried out using probes (6 carboxy fluorescein-FAM) designed by Applied Biosystems to mouse specific targeted genes, while using β-actin as an endogenous control. Amplification reactions contained 1 μl cDNA, 5 μl of the 2× PCR Master mix (Roche), 900 nM of each primer and were brought to a total of 10 μl by the addition of RNase-free water. All reactions were performed in triplicate using 96-well plates on the LightCycler®480 System. Thermal cycling conditions were as recommended by the manufacturer (Roche) for 55 cycles. To check for amplicon contamination, each run contained no template controls in triplicate for each probe used. Cycle threshold (Ct) values were recorded. Data was normalized using β-actin and transformed using the 2-ΔΔCT method and presented as a fold change vs. control group.

[4] = test system: BALBc mice; test: Gene expression in hippocampus, amygdala and prefrontal cortex (qPCR); type: in vivo, mouse; conditions: amygdala
Method: Animals were allowed to habituate to their holding room for one week after arrival into the animal unit. They receive oral gavage (200 μL dose) of live biotherapeutics at a dose of 1×10^9 CFU for 6 consecutive days between 15:00 and 17:00. On day 7, the animals are decapitated, and tissues are harvested for experimentation.
Total RNA was extracted using the mirVana™ miRNA Isolation kit (Ambion/Llife technologies, Paisley, UK) and DNase treated (Turbo DNA-free, Ambion/life technologies) according to the manufacturers recommendations. RNA was quantified using NanoDrop™ spectrophotometer (Thermo Fisher Scientific Inc., Wilmington, Del., USA) according to the manufacturer's instructions. RNA quality was assessed using the Agilent Bioanalyzer (Agilent, Stockport, UK) according to the manufacturer's procedure and an RNA integrity number (RIN) was calculated. RNA with RIN value >7 was used for subsequent experiments. RNA was reverse transcribed to cDNA using the Applied Biosystems High Capacity cDNA kit (Applied Biosystems, Warrington, UK) according to manufacturer's instructions. Briefly, Multiscribe Reverse Transcriptase (50 U/μL) (1)(2)(1)(10) was added as part of RT master mix, incubated for 25° C. for 10 min, 37° C. for 2 h, 85° C. for 5 min and stored at 4° C. Quantitative PCR was carried out using probes (6 carboxy fluorescein-FAM) designed by Applied Biosystems to mouse specific targeted genes, while using β-actin as an endogenous control. Amplification reactions contained 1 μl cDNA, 5 μl of the 2× PCR Master mix (Roche), 900 nM of each primer and were brought to a total of 10 μl by the addition of RNase-free water. All reactions were performed in triplicate using 96-well plates on the LightCycler®480 System. Thermal cycling conditions were as recommended by the manufacturer (Roche) for 55 cycles. To check for amplicon contamination, each run contained no template controls in triplicate for each probe used. Cycle threshold (Ct) values were recorded. Data was normalized using β-actin and transformed using the 2-ΔΔCT method and presented as a fold change vs. control group.
Expression of genes for neurotransmitter receptors [serotonin receptor 1a(5-HTR1a), dopamine D1 receptor, GABA receptor subunit B1, GABAA receptor, NMDA2A (Grin2A) and NMDA2B (Grin2b) receptor], inflammatory markers [IL-1β, IL6, CD11b, TNFα and TLR4], and endocrine markers [corticosterone releasing factor (CRF), corticosterone releasing factor receptors 1 and 2 (CRFR1, CRFR2), brain-derived neurotrophin factor (BDNF), vasopressin receptor, oxytocin receptor, glucocorticoid receptor and mineralocorticoid receptor] were analysed in brain tissue from the hippocampus, amygdala and prefrontal cortex.

For Megasphaera massiliensis [MRx0029], the “levels of histone deacetylase activity” value [1] was “reduce”, the “secretion of BDNF” value [2] was “increases” and the “expression tryptophan hydroxylase-1 (Tph1)” value ([3]; colon) was “significantly increase”. The “TJP1 expression in colon” value ([3]; colon region of the murine intestine) was “significantly up-regulate”, the “Occludin expression in colon” value ([3]; colon region of the murine intestine, p=0.073) was “significantly up-regulate” and the “expression of CD11b” value [4] was “increase”. The “expression of GABBR1” value [4] was “increased”, the “expression of GABRA2” value [4] was “significantly increased” and the “expression of TLR4” value [4] was “significantly increased”. The glucocorticoid receptor expression [4] was “increase”.

Reference: US11660319B2, “Compositions comprising bacterial strains” (priority 2017, dated 2023)
